According to ChEMBL document CHEMBL4229496, “Discovery of small molecule inhibitors of adenovirus by disrupting E3-19K/HLA-A2 interactions” (Bioorg Med Chem Lett, 2018):
Where a name gives a salt, the structure may show the parent alone.

Target: HLA class I histocompatibility antigen, A alpha chain (Homo sapiens, UniProt P04439, D140Y/D185E/D98H/E176V/E277Q/G131W/G231S/I119V/I121R/I166T/I218V/L300P/L318F/N151K/N90K/P208A/P217A/Q86G/Q94H/R138H/R169H/T345S)
Assay: Binding affinity to human biotinylated HLA-A2 by surface plasmon resonance assay

SMILES	Kd [µM]
COc1ccc(CCN2CCC(Nc3nc4ccccc4n3Cc3ccc(F)cc3)CC2)cc1 [ASTEMIZOLE]	2.5 to 75
COc1cc2nc(N3CCN(C(=O)C4COc5ccccc5O4)CC3)nc(N)c2cc1OC (stereo unspecified) [DOXAZOSIN MESYLATE]	15.7
O=C(CCCN1CCC(O)(c2ccc(Cl)cc2)CC1)c1ccc(F)cc1 [HALOPERIDOL]	< 10
O=C(c1ccc(OCCN2CCCCC2)cc1)c1c(-c2ccc(O)cc2)sc2cc(O)ccc12 [RALOXIFENE HYDROCHLORIDE]	22
O=C(CCCN1CCC2(CC1)C(=O)NCN2c1ccccc1)c1ccc(F)cc1 [SPIPERONE]	2.5 to 75
O=c1n(CCCN2CCN(c3cccc(Cl)c3)CC2)nc2ccccn12 [TRAZODONE HYDROCHLORIDE]	2.5
